In ChEMBL document CHEMBL5653631, “A Potent and Selective ULK1 Inhibitor Suppresses Autophagy and Sensitizes Cancer Cells to Nutrient Stress” (iScience, 2018):

Experiments:
[1] = molecular target: T1, Testis-specific serine/threonine-protein kinase 1 (Homo sapiens) (UniProt Q9BXA7); assay: Inhibition of human recombinant TSSK1 at 15 nM related to control ULK1
T1 sequence (whole entry): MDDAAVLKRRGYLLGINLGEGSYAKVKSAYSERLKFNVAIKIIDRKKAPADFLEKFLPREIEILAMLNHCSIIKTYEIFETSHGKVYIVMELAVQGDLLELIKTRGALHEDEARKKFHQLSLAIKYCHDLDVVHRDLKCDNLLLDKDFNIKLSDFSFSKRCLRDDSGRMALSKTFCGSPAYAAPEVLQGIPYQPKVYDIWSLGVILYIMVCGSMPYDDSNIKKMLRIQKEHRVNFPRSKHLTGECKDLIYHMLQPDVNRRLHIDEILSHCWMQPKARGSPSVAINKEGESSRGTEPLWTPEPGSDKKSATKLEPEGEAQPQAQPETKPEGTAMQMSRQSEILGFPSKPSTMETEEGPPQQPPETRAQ

[2] = molecular target: T2, Eukaryotic translation initiation factor 2-alpha kinase 3 (Homo sapiens) (UniProt Q9NZJ5); assay: Inhibition of human recombinant PEK at 40 nM in presence of ATP by radiometric assay relative to control
T2 sequence (whole entry): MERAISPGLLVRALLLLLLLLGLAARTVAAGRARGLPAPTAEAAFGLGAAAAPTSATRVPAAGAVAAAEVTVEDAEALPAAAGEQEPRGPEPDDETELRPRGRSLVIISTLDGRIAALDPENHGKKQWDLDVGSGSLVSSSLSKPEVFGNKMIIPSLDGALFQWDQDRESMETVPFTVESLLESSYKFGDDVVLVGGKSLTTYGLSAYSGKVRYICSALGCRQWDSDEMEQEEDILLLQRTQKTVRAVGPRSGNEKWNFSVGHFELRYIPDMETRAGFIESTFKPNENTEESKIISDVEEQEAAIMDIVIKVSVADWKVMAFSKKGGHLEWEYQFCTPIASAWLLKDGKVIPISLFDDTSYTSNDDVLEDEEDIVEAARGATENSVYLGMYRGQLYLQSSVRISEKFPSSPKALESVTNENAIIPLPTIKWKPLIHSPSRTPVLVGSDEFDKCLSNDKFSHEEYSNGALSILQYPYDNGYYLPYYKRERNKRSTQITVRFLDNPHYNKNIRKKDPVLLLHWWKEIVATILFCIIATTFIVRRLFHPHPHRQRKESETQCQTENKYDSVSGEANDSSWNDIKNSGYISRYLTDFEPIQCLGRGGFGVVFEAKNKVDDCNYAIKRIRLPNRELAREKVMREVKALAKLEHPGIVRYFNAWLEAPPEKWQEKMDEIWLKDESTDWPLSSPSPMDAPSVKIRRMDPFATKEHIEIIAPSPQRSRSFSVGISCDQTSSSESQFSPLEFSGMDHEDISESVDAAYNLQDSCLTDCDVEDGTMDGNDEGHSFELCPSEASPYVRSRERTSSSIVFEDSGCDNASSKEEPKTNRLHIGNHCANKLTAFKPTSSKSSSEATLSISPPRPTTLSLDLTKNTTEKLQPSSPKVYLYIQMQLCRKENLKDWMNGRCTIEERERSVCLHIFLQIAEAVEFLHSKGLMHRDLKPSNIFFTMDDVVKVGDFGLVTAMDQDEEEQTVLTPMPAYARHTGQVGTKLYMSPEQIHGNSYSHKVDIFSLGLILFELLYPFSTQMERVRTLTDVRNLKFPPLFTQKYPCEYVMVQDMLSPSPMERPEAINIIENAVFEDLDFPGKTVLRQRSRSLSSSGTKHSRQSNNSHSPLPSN

[3] = molecular target: T3, Serine/threonine-protein kinase TAO1 (Homo sapiens) (UniProt Q7L7X3); assay: Inhibition of human recombinant TAO1 at 40 nM in presence of ATP by radiometric assay relative to control
T3 sequence (whole entry): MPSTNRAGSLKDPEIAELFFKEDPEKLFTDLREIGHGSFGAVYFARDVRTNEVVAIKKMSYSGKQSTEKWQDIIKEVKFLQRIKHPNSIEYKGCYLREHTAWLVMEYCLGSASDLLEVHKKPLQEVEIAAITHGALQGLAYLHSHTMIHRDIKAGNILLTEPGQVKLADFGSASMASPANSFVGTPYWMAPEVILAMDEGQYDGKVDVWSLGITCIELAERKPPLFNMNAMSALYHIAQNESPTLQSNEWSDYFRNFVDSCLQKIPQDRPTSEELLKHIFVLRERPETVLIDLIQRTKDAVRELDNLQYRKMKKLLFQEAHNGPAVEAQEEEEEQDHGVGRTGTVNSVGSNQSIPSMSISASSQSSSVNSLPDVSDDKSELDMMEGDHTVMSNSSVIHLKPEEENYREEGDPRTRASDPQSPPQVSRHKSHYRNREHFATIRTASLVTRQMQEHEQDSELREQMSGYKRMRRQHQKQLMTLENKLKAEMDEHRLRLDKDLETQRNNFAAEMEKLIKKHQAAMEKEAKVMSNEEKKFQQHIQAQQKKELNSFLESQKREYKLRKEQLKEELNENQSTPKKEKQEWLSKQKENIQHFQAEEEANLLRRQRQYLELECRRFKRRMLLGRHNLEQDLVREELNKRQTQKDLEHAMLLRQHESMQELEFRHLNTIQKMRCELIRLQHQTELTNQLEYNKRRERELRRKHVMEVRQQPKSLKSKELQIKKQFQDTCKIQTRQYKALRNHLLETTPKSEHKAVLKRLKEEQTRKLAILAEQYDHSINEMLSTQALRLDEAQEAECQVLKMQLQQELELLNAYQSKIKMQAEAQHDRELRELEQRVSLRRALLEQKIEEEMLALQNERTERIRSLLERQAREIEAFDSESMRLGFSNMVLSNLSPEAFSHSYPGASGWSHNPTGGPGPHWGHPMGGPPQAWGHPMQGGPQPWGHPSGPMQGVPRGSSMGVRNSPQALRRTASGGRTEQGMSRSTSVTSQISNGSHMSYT

[4] = molecular target: Transcription initiation factor TFIID subunit 1-like (Homo sapiens) (UniProt Q8IZX4); assay: Inhibition of human recombinant TAF1L at 40 nM related to control ULK1
Chain of Transcription initiation factor TFIID subunit 1-like (Homo sapiens) (Q8IZX4 whole entry): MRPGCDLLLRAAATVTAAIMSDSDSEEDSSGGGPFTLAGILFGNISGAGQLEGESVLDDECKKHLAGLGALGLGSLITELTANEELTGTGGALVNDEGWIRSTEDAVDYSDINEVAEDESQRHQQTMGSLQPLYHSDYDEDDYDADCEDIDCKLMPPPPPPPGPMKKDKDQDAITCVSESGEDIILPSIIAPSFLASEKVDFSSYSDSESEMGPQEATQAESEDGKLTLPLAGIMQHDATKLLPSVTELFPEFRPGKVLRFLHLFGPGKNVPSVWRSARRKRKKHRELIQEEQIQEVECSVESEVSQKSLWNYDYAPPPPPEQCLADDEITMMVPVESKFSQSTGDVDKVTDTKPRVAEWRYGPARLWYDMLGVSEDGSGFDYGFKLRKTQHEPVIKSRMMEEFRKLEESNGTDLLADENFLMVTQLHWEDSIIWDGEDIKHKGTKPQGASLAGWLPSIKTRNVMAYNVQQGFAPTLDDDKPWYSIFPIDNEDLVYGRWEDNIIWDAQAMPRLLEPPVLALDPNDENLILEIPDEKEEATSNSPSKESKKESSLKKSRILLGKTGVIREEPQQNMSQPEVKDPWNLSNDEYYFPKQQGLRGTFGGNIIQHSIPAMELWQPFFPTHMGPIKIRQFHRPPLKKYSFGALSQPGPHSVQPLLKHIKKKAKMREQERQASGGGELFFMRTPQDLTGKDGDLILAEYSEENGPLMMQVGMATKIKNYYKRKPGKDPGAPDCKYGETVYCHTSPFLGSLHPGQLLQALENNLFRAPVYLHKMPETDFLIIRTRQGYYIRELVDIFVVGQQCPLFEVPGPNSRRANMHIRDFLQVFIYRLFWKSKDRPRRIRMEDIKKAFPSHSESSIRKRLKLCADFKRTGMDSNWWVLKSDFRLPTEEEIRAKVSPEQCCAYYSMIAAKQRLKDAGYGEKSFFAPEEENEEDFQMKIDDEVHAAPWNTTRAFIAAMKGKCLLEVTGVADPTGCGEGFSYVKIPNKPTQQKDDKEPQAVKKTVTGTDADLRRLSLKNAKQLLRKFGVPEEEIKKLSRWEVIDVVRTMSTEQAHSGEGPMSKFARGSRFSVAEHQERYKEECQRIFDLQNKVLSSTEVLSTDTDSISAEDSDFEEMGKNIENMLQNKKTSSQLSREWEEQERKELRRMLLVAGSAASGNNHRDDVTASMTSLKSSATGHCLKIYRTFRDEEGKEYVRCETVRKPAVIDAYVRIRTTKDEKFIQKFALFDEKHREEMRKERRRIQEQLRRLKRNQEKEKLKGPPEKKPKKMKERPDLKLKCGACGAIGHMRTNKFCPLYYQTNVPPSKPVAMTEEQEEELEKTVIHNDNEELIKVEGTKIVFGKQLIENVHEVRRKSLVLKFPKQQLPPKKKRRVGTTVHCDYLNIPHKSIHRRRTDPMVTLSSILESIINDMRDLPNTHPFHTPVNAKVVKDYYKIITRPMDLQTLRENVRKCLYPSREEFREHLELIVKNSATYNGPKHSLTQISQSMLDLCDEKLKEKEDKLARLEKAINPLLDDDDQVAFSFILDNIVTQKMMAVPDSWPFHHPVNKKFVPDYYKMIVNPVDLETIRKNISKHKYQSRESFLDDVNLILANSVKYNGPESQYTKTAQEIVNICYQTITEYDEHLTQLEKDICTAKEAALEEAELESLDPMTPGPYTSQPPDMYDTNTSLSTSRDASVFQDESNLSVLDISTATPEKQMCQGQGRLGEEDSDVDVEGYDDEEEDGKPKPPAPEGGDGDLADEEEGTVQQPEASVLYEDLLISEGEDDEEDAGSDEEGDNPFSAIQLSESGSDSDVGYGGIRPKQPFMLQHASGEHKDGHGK

fold change (FC) [1]	inhibition [2] [%]	inhibition [3] [%]	fold change (FC) [4]	SMILES
0.26				CC(C)[C@H](NC(=O)c1cc(-c2cnn3cc(-c4ccc(OCCN5CCCCC5)cc4)cnc23)cs1)C(F)(F)F
	0	0	0.64	O=C(N[C@@H](C1CC1)C(F)(F)F)c1cc(-c2cnn3cc(-c4ccc(F)cc4)cnc23)cs1
